How the values were obtained:
[1] = tested on: A375 melanoma; experiment: Cell viability, MTT assay, A375; format: cell-based, human; conditions: Homo sapiens, A-375; 72 h, mean ± SD
Protocol: (§1) Five human cell lines (A375 melanoma, A549 lung adenocarcinoma, HCT116 and HT29 colorectal carcinoma, MDA-MB-231 triple-negative breast adenocarcinoma) were used to study the antitumor effects of the di-tert-butylphenols and their respective carborane analogs. All selected cell lines were derived from inflammation-associated tumors.
(§2) After the incubation period, the supernatant was discarded from the wells, and the cells were washed two times with 200 µL of PBS. Next, MTT solution at a final concentration of 0.5 mg/mL was added and incubated at 37 °C until purple formazan crystals were formed (30 min to one hour). After incubation, the dye was discarded. In order to dissolve the formed formazan crystals DMSO was added, and the absorbance was measured at λmax = 540 nm, with the reference/background wavelength of 670 nm. All results are expressed as a percentage of the control value which was arbitrary set to 100%. After 72 h treatment, cells were washed with 200 µL of PBS and fixed with 4% paraformaldehyde (PFA) for 15 min at room temperature (RT). Next, cells were stained with 1% CV solution. After 20 min, cells were washed in tap water and dried on air. Dye was dissolved in 33% acetic acid and the absorbance was measured at λmax = 540 nm, with the reference/background wavelength of 670 nm. Results were expressed as a percentage of the control value which was arbitrary set to 100%.
(§3) 1. General methods, materials, and procedures
(§4) 1.1.1. Reagents and cells
(§5) Reagents and cells were obtained from following manufacturers: Capricorn Scientific GmbH (Hessen, Germany) – Culture medium RPMI-1640, Dulbecco's Modified Eagle Medium (DMEM), and fetal bovine serum (FBS). Serva (Heidelberg, Germany) – Paraformaldehyde (PFA). Sigma (St. Louis, MO, USA) – Ethylenediaminetetraacetic acid (EDTA), Dimethyl sulfoxide (DMSO), chloroquine, CV, Triton X-100, RNase, PI, PBS, 3-MA, CFSE, and fluorescent mounting medium. AppliChem (MO, USA) –MTT. Thermo Fisher Scientific (Waltham, MA, USA) – DHR. R&D Systems (Minneapolis, MN, USA) – ApoStat. BD (Pharmingen, San Diego, SAD) – Annexin V-FITC (AnnV). Biological Industries (Cromwell, CT, USA) – Penicillin Streptomycin solution. American Type Culture Collection (ATCC, Manassas, Virginia, USA) – Human lung carcinoma (A549), human breast adenocarcinoma (MDA-MB-231), human colorectal ade-nocarcinoma (HT-29), human colorectal carcinoma (HCT116) and human melanoma (A375).
(§6) Cell lines (A375, HCT116, HT-29 and MDA-MB-231) were cultivated in HEPES-buffered RPMI-1640 medium while A549 cell line was cultivated in Dulbecco's Modified Eagle Medium (DMEM) which were previously supplemented with 10% heat-inactivated FBS, penicillin (100 units/mL), and streptomycin (100 μg/mL). All cells were kept at 37 °C in a humidified atmosphere with 5% CO2. For viability determi-nation cells were seeded at following densities in 96-well plates: 4 x 10^3 cells/well (A375, HT-29 and MDA-MB-231), 5 x 10^3 cells/well (HCT116), and 3 x 10^3 cells/well (A549). […]
(§7) Afterwards, cells were washed with phosphate-buffered saline (PBS) and stained with AnnV (15 μg/mL) and PI (15 μg/mL). […]
(§8) PBS and analyzed using flow cytometry. HCT116 cells were stained with 1 µg/mL of AO solution for 15 min at 37 °C to detect the presence of autophagic cell death. Afterwards cells were washed with PBS, resuspended and analyzed by flow cytometry (CyFlow® Space Partec using the PartecFloMax® software

[2] = tested on: A549 lung adenocarcinoma; experiment: Cell viability, MTT assay, A549; format: cell-based, human; conditions: Homo sapiens, A549; 72 h, mean ± SD
Protocol: as §1, §2, §3, §4, §5, §6
(§9) Afterwards, cells were washed with phosphate-buffered saline (PBS) and stained with AnnV (15 μg/mL) and PI (15 μg/mL). After 15 min incubation at room temperature (RT) protected from light the cells were resuspended in AnnV-binding buffer and analysed using flow cytom-etry. HCT116 cells were incubated with pan-caspase inhibitor Apostat for 30 min at 37 °C to determine whether detected apoptosis was mediated by caspase activation. Afterwards, cells were washed with PBS and analyzed using flow cytometry. HCT116 cells were stained with 1 µg/mL of AO solution for 15 min at 37 °C to detect the presence of autophagic cell death. Afterwards cells were washed with PBS, resuspended and analyzed by flow cytometry (CyFlow® Space Partec using the PartecFloMax® software

[3] = tested on: HCT116 colorectal carcinoma; experiment: Cell viability, MTT assay, HCT116; format: cell-based, human; conditions: Homo sapiens, HCT-116; 72 h, mean ± SD
Protocol: as §1, §2, §3, §4, §5, §6, §7, §8

[4] = tested on: HT-29 colorectal carcinoma; experiment: Cell viability, MTT assay, HT-29; format: cell-based, human; conditions: Homo sapiens, HT-29; 72 h, mean ± SD
Protocol: as §1, §2, §3, §4, §5, §6, §9

[5] = tested on: MDA-MB-231 triple-negative breast adenocarcinoma; experiment: Cell viability, MTT assay, MDA-MB-231; format: cell-based, human; conditions: Homo sapiens, MDA-MB-231; 72 h, mean ± SD
Protocol: as §1, §2, §3, §4, §5, §6, §9

[6] = tested on: A375 melanoma; experiment: Cell viability, crystal violet (CV) assay, A375; format: cell-based; conditions: Homo sapiens, A-375; 72 h, mean ± SD
Protocol: as §1, §2, §3, §4
as §5, with “American Type Culture Collection (ATCC, Manassas, Virginia, USA) – Human lung carcinoma (A549), human breast adenocarcinoma (MDA-MB-231), human colorectal ade-nocarcinoma (HT-29), human colorectal carcinoma (HCT116) and human melanoma (A375).” left out
as §9, with “HCT116 cells were stained with 1 µg/mL of AO solution for 15 min at 37 °C to detect the presence of autophagic cell death.” left out

[7] = tested on: A549 lung adenocarcinoma; experiment: Cell viability, crystal violet (CV) assay, A549; format: cell-based; conditions: Homo sapiens, 72 h, mean ± SD
Protocol: as §1, §2, §3, §4
as §5, with “American Type Culture Collection (ATCC, Manassas, Virginia, USA) – Human lung carcinoma (A549), human breast adenocarcinoma (MDA-MB-231), human colorectal ade-nocarcinoma (HT-29), human colorectal carcinoma (HCT116) and human melanoma (A375).” left out
as §9, with “HCT116 cells were stained with 1 µg/mL of AO solution for 15 min at 37 °C to detect the presence of autophagic cell death.” left out

[8] = tested on: HCT116 colorectal carcinoma; experiment: Cell viability, crystal violet (CV) assay, HCT116; format: cell-based; conditions: Homo sapiens, HCT-116; 72 h, mean ± SD
Protocol: as §1, §2, §3, §4
as §5, with “American Type Culture Collection (ATCC, Manassas, Virginia, USA) – Human lung carcinoma (A549), human breast adenocarcinoma (MDA-MB-231), human colorectal ade-nocarcinoma (HT-29), human colorectal carcinoma (HCT116) and human melanoma (A375).” left out
as §9, with “HCT116 cells were stained with 1 µg/mL of AO solution for 15 min at 37 °C to detect the presence of autophagic cell death.” left out

[9] = tested on: HT-29 colorectal carcinoma; experiment: Cell viability, crystal violet (CV) assay, HT-29; format: cell-based; conditions: Homo sapiens, 72 h, mean ± SD
Protocol: as §1, §2, §3, §4
as §5, with “American Type Culture Collection (ATCC, Manassas, Virginia, USA) – Human lung carcinoma (A549), human breast adenocarcinoma (MDA-MB-231), human colorectal ade-nocarcinoma (HT-29), human colorectal carcinoma (HCT116) and human melanoma (A375).” left out
as §9, with “HCT116 cells were stained with 1 µg/mL of AO solution for 15 min at 37 °C to detect the presence of autophagic cell death.” left out

[10] = tested on: MDA-MB-231 triple-negative breast adenocarcinoma; experiment: Cell viability, crystal violet (CV) assay, MDA-MB-231; format: cell-based; conditions: Homo sapiens, 72 h, mean ± SD
Protocol: as §1, §2, §3, §4
as §5, with “American Type Culture Collection (ATCC, Manassas, Virginia, USA) – Human lung carcinoma (A549), human breast adenocarcinoma (MDA-MB-231), human colorectal ade-nocarcinoma (HT-29), human colorectal carcinoma (HCT116) and human melanoma (A375).” left out
as §9, with “HCT116 cells were stained with 1 µg/mL of AO solution for 15 min at 37 °C to detect the presence of autophagic cell death.” left out

[11] = physchem; conditions: pH 7.4
[12] = served as references for the HPLC method; cited from earlier work
[13] = tested on: primary peritoneal exudate cells; experiment: Viability of primary peritoneal exudate cells, CV assay; format: cell-based; conditions: 72 h, cells from healthy mice
Protocol: Primary peritoneal exudates cells (PEC) isolated from C57BL/6 mice were used to estimate the selec-
Mice were obtained from the animal facility at the Institute for Biological Research “Siniša Stanković” - National Institute of the Republic of Serbia, University of Belgrade (Belgrade, Serbia). PEC were cultivated in HEPES-buffered (HEPES = 4-
5% heat-inactivated fetal bovine serum (FBS) and antibiotics under standard growth conditions (37 °C, 5% CO2). For viability determination cells were seeded at a density of 2 x 10^5 cells/well in 96-well plates.
Non-adherent cells were removed two hours after seeding and treatment was applied. Cell viability was determined after 72 h using a crystal violet (CV) assay.
the indicated concentrations for 72 h. Cell viability was determined by the CV test. The data are presented as a mean ± SD from one repre-
sentative out of three independent experiments. *p<0.05 refer to untreated cultures.

| Compound | IC50 [1] [µM] | IC50 [2] [µM] | IC50 [3] [µM] | IC50 [4] [µM] | IC50 [5] [µM] | IC50 [6] [µM] | IC50 [7] [µM] | IC50 [8] [µM] | IC50 [9] [µM] | IC50 [10] [µM] | chromatographic logD [11] | logD7.4 of HPLC references [12] | viability of primary peritoneal exudate cells [13] |
| --- | --- | --- | --- | --- | --- | --- | --- | --- | --- | --- | --- | --- | --- |
| CON1CCC(=Cc2cc(C(C)(C)C)c(O)c(C(C)(C)C)c2)C1=O [Compound E-5110, 3-([3,5-bis(1,1-dimethylethyl)-4-hydroxyphenyl]methylene)-1-methoxy-2-pyrrolidinone] | 12.9 ± 1.1 | 22.1 ± 1.6 | 25.1 ± 1.1 | 25.6 ± 2.6 | 34.2 ± 1.2 | 33.5 ± 1.7 | 41.1 ± 4.3 | 39.6 ± 2.8 | 39.8 ± 2.1 | 47.3 ± 1.7 | 3.35 | – | – |
| CC1=C(C(=O)Nc2ccccc2)S(=O)(=O)CCO1 [Oxycarboxin] | – | – | – | – | – | – | – | – | – | – | – | 1.13 | – |
| CC(C)(C)c1cc(C(=O)c2cccs2)cc(C(C)(C)C)c1O [Compound R-830, 2,6-di-tert-butyl-4-(2’-thenoyl)phenol] | 16.7 ± 3.1 | 19 ± 0.7 | 20.6 ± 0.4 | 19.4 ± 0.4 | 33.3 ± 1.2 | 29.4 ± 2.3 | 32.6 ± 1.3 | 30.8 ± 3.2 | 24.9 ± 1.3 | 34 ± 1.6 | 3.91 | – | diminished the viability of primary cells at 100 µM |

From article PMC10254233, “Synthesis and In Vitro Biological Evaluation of p-Carborane-Based Di-tert-butylphenol Analogs” (Molecules, 2023)
